Test results as given in article PMC5881017, “Mechanisms of BK Channel Activation by Docosahexaenoic Acid in Rat Coronary Arterial Smooth Muscle Cells” (Frontiers in Pharmacology, 2018).

Molecular target: T1, large-conductance calcium-activated potassium (BK) channel (Rattus norvegicus, UniProt Q62976)
T1 construct: gene Kcnma1; native BK channels in freshly isolated rat coronary arterial smooth muscle cells (inside-out patches)
Assay: inside-out single-channel patch clamp (open probability at +[…] mV)
Assay type: cell-based

T1 sequence (Q62976 whole entry): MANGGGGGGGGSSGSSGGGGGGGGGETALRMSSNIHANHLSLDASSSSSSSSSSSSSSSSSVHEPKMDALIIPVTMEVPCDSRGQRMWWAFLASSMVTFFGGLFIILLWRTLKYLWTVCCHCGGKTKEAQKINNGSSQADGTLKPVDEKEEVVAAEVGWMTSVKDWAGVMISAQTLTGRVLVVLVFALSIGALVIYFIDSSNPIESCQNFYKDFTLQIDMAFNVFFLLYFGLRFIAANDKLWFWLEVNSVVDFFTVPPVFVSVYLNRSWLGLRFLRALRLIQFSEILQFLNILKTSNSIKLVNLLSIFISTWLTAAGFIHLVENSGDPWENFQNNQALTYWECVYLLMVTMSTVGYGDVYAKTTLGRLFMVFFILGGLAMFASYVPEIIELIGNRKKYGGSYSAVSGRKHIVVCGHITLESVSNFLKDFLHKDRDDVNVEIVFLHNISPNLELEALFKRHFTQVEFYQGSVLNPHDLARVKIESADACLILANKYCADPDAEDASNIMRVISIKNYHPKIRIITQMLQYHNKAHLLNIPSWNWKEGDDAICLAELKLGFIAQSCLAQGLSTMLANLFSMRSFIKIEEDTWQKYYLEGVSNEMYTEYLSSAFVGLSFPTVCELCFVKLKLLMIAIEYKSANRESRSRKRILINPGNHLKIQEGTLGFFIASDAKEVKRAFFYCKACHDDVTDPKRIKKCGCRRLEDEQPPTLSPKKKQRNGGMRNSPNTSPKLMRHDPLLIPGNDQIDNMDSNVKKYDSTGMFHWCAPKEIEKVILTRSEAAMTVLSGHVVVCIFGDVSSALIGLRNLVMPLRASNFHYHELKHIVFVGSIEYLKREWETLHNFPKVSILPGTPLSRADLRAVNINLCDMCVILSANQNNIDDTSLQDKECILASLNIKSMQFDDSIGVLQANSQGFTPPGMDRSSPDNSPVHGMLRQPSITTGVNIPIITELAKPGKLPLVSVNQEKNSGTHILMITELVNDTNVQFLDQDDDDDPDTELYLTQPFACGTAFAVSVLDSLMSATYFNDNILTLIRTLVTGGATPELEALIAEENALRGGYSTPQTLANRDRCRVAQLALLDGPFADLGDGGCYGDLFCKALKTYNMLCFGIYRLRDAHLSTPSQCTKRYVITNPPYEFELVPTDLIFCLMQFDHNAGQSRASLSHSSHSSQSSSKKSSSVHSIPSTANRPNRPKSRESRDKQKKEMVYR

Structure (SMILES): CC/C=C\C/C=C\C/C=C\C/C=C\C/C=C\C/C=C\CCC(=O)O [Docosahexaenoic acid]
- EC50: 3.37 ± 0.1 µM
